According to article PMC8592027, “Structure-Guided Design of D-Galactal Derivatives with High Affinity and Selectivity for the Galectin-8 N-Terminal Domain” (ACS Medicinal Chemistry Letters, 2021):

Biological target: T1, galectin-8N (galectin-8 N-terminal domain) (Homo sapiens, UniProt O00214)
T1 construct: selective ligand for the galectin-8 N-terminal domain (galectin-8N); made in house
T1 sequence (O00214 19-152 limits assumed): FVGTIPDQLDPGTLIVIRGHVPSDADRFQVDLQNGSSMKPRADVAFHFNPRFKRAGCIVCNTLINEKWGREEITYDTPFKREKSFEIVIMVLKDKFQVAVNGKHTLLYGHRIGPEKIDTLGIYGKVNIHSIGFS
Assay: Competitive fluorescence polarization assay, galectin-8N
Format: binding
Procedure: All synthesized D-galactal derivatives had higher binding affinities for galectin-8N than D-galactal 3.
1. Competitive fluorescence polarization experiments:
Human galectins -1, -3, -4N, -4C, -7, -8N, -9N, and -9C were expressed and purified as previously described 30,41. Fluorescence polarisation experiments were performed using the PHERAstar FS plat e reader (software version 2.10 R3), and the fluorescence anisotropy of fluorescein tagged probes was measured by excitation at 485 nm and emission at 520 nm. The specific conditions for galectins -1, -3, -4N, -4C, -7, -8N, -9N, and -9C were kept as report ed30,41,42. The synthesised compounds were dissolved in pure DMSO at 20 mM concentration and diluted in PBS to 3-6 different concentrations, and each concentration was tested in duplicate. The highest inhibitor concentrations tested were 1.5 mM. The

Q: For Cn1c(CO[C@@H]2C=CO[C@H](CO)[C@@H]2O)nc2ccc(C(=O)O)cc21 [6a], which Kd (mean ± SEM of n = 4–8) is on record?
A: 48 ± 4 µM

Q: What about the “selectivity for galectin-8N over galectin-1” value (ratio of Kd values) of the same compound?
A: 27 fold

Q: What about the “selectivity for galectin-8N over galectin-3” value (ratio of Kd values) of the same compound?
A: 15 fold
